Test results reported in PubChem BioAssay (NCI).
Values joined by “and” are separate entries in the source; they are usually repeats but may differ in a detail not shown here. Identical values can stand only once.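 Growth conditions: 96-well plates. Treatment: test compound, 48 hours, 5 concentrations. Analysis: linear interpolation between bracketing concentrations; unreached endpoints set to highest concentration. The concentration for 50% growth inhibition is given as GI50. TGI marks complete inhibition of growth.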

Columns and labels:
Experiment in all cases: growth of human tumour cells (NCI), 48 h
SNB-78 CNS = test system: SNB-78 CNS
LXFL 529 NSCLC = test system: LXFL 529 NSCLC
DMS 273 small cell lung = test system: DMS 273 small cell lung
DMS 114 small cell lung = test system: DMS 114 small cell lung
DLD-1 colon = test system: DLD-1 colon
RXF-631 renal = test system: RXF-631 renal
BT-549 breast = test system: BT-549 breast
MDA-MB-231 breast = test system: MDA-MB-231 breast
NCI/ADR-RES ovarian = test system: NCI/ADR-RES ovarian
MDA-MB-435 = test system: MDA-MB-435
MCF7 breast = test system: MCF7 breast
DU-145 prostate = test system: DU-145 prostate
HS 578T breast = test system: HS 578T breast

Compound	TGI (SNB-78 CNS) [µM]	TGI (LXFL 529 NSCLC) [µM]	TGI (DMS 273 small cell lung) [µM]	TGI (DMS 114 small cell lung) [µM]	TGI (DLD-1 colon) [µM]	TGI (RXF-631 renal) [µM]	other results
Oc1ccc(O)c(-n2cccn2)c1-n1cccn1	> 100	> 100	> 100	> 100	> 100	–	–
C=CCO[C@H]1CC[C@@]2(C)C(CC[C@]3(C)C2CC=C2[C@@H]4[C@@H](C)C(C)CC[C@]4(C(=O)O)CCC23C)C1(C)C (some centres not stated)	35.4	26.9	–	32.1	32.1	28.9	–
CC(CC(=O)Nc1ccc(NC(=O)CC(C)N=NC(N)=O)cc1)N=NC(N)=O (configuration not stated)	–	> 100	> 100	38.2	> 100	–	–
O/N=C1\C(=C\c2ccc3c(c2)OCCO3)CCCC1C(NO)c1ccc2c(c1)OCCO2 (configuration not stated)	> 100	62.7	43	44.6	> 100	> 100	–
COC(=O)Nc1nc2ccc(C(=O)c3cccs3)cc2[nH]1	> 63.1	18.6	> 100	> 100	> 100	> 61.8	TGI (BT-549 breast): 4.33 µM; GI50 (MDA-MB-231 breast): 0.595 µM; TGI (MDA-MB-231 breast): 79.2 µM and > 100 µM; GI50 (NCI/ADR-RES ovarian): 0.0388 µM and 0.0664 µM; TGI (NCI/ADR-RES ovarian): > 100 µM; GI50 (MDA-MB-435): 0.029 µM; TGI (MDA-MB-435): 0.158 µM and 0.102 µM; GI50 (MCF7 breast): 0.0618 µM; TGI (MCF7 breast): 46.2 µM and > 100 µM; TGI (DU-145 prostate): 1.5 µM; GI50 (HS 578T breast): 0.0244 µM and 0.0882 µM; TGI (HS 578T breast): 50.9 µM and > 100 µM
COC(=O)C(=O)C(C#N)c1c(Cl)cccc1Cl (configuration not stated)	> 100	> 100	> 100	> 100	> 100	> 100	–
CC1=C2C3OC(=O)C(C)C3C(O)C[C@@]2(C)C(=O)CC1 (some centres not stated)	> 100	> 100	> 100	> 100	> 100	> 100	–
C/C(=N\Nc1n[nH]c(=S)n1N)c1c(O)cc(C)oc1=O	> 100	> 100	–	–	> 100	–	–
COC(=O)C(/C(=N\O)C(=O)Nc1ccc(Br)cc1)c1nc2ccccc2[nH]c1=O (configuration not stated)	> 100	80.5	> 100	41.2	> 100	> 100	–
Cc1c(Cl)cccc1NC(=O)C(=O)c1c(O)c2ccc(O)cc2oc1=O	> 100	> 100	> 100	> 100	> 100	–	–
CN(C)C(=S)/N=c1\ss/c(=N\S(=O)(=O)c2ccccc2)n1C	> 100	> 100	> 100	> 100	> 100	–	–
CN1C/C(=C\c2ccc(C(=O)O)cc2)C(=O)/C(=C/c2ccc(C(=O)O)cc2)C1	> 100	> 100	> 100	> 100	> 100	> 100	–
CCN1CCC(O)(/C=C/c2ccccc2)C(C(=O)/C=C/c2ccccc2)C1 (configuration not stated)	11.5	3.56	3.27	5.6	8.22	15	–
C#C[C@@H](CCCC)OC(=O)N[C@H](C)c1ccccc1	> 100	> 100	> 100	> 100	> 100	> 100	–
N#CC(C#N)C(c1ccccc1)c1ccccc1	> 100	> 100	> 100	> 100	> 100	> 100	–
CCOC(=O)C(=O)Nc1nc2ccc(C)cc2s1	> 100	> 100	> 100	> 100	> 100	> 100	–
COc1ccc(/C=C2/CSC/C(=C/c3ccc(OC)c(OC)c3)C2=O)cc1OC	> 100	10.8	3.09	–	–	6.41	TGI (MDA-MB-231 breast): 8.18 µM; TGI (MDA-MB-435): > 100 µM; TGI (MCF7 breast): > 100 µM; TGI (DU-145 prostate): 9.07 µM
COc1cc([C@@H]2c3cc4c(cc3[C@@H](NCc3cccc(F)c3)C3COC(=O)[C@@H]32)OCO4)cc(OC)c1O (some centres not stated)	57.7	> 65	14.3	31.6	> 65	–	–
O=C1C(=Cc2ccc(F)cc2)C(=O)c2ccccc21	–	> 100	> 100	> 100	> 100	> 100	–
N#CNC1=NCCC(=O)N1CCc1c[nH]c2ccccc12	> 100	> 100	> 100	> 100	> 100	–	–
NC1=Nc2ccccc2Sc2ccccc21	> 100	–	> 100	> 100	> 100	–	–
CC1OC(=O)N2CCC=CC12 (configuration not stated)	> 100	> 100	> 100	> 100	> 100	> 100	–

Compound	TGI (SNB-78 CNS) [µM]	TGI (LXFL 529 NSCLC) [µM]	TGI (DMS 273 small cell lung) [µM]	TGI (DMS 114 small cell lung) [µM]	TGI (DLD-1 colon) [µM]	TGI (RXF-631 renal) [µM]	other results
COC(=O)C#CC(N)=O	> 100	> 100	> 100	> 100	> 100	> 100	–
N#C/C(=C1\OC(N)=C(c2ccc(Cl)cc2)C1=O)c1ccc(Cl)cc1	31.4	24.3	26.7	29.3	30.9	–	–
Cc1nc(-n2nc(-c3ccccc3)cc2-c2ccccc2)sc1C(=O)CC(=O)C(=O)Nc1ccc(O)cc1	> 100	> 100	> 100	> 100	> 100	> 100	–
Cc1ccc(C)c(NC(=O)C(=O)Nn2c(=S)[nH]c3ccccc3c2=O)c1	> 100	> 100	> 100	> 100	> 100	> 100	–
NC(=O)c1nc(-c2ccc(Cl)c(Cl)c2)nc2ccccc12	> 100	> 100	> 24.9	> 100	> 100	–	–
COC(=O)C(C)Oc1ccc(O)cc1 (configuration not stated)	> 100	> 100	> 100	34.7	> 100	> 100	–
CCOC(=O)CC(C)C1(C=O)CCCCC1=O (configuration not stated)	> 100	> 100	> 100	41.6	> 100	> 100	–
CCCCOP1(=O)CC(C)=C(Cl)C(C)(OC)C1 (configuration not stated)	> 100	> 100	> 100	–	> 100	–	–
O=C(N/C(=C\c1ccc(F)cc1)c1nc2ccccc2[nH]1)c1ccccc1	> 100	> 100	–	> 100	> 100	> 100	–
CCCCCC/C(CC(=O)CCC(=O)NCCc1ccccc1)=N\Nc1ccc([N+](=O)[O-])cc1[N+](=O)[O-]	> 100	> 100	> 100	56.4	> 100	> 100	–
C[C@@H]1Cc2c(ccc3[nH]ncc23)[C@@H](c2ccc(NC3CN(CCCF)C3)cn2)N1CC(F)(F)F	–	–	–	–	–	–	GI50 (BT-549 breast): 16 µM; TGI (BT-549 breast): 37.2 µM; GI50 (MDA-MB-231 breast): 17 µM; TGI (MDA-MB-231 breast): 34.5 µM; GI50 (NCI/ADR-RES ovarian): 32.3 µM; TGI (NCI/ADR-RES ovarian): > 100 µM; GI50 (MDA-MB-435): 17.2 µM; TGI (MDA-MB-435): 34.8 µM; GI50 (MCF7 breast): < 0.01 µM; TGI (MCF7 breast): 16.1 µM; GI50 (DU-145 prostate): 35.2 µM; TGI (DU-145 prostate): > 100 µM; GI50 (HS 578T breast): 15 µM; TGI (HS 578T breast): 41 µM
C=CCCC(=O)CC(=O)OCc1ccccc1	> 100	> 100	> 100	> 100	> 100	> 100	–
O=[N+]([O-])c1ccc2nc(-c3ccc(Cl)cc3)[nH]c2c1	–	–	–	–	–	–	TGI (BT-549 breast): 64.6 µM; TGI (MDA-MB-231 breast): 81.5 µM; TGI (NCI/ADR-RES ovarian): 57.6 µM; TGI (MDA-MB-435): 46.8 µM; TGI (MCF7 breast): 62.8 µM; TGI (DU-145 prostate): 60.5 µM; TGI (HS 578T breast): 71.7 µM
CC/C(C)=C1\CCC(CN(C)C)C1=O (configuration not stated)	54.8	29.9	33.3	41.8	30.5	34.4	–
CNc1nc(-c2ccc3c(N)n[nH]c3c2)cc(N2C[C@@H](C(=O)NC3CCCCC3)CC[C@H]2C)n1	–	–	–	–	–	–	GI50 (BT-549 breast): 1.91 µM; TGI (BT-549 breast): 12.3 µM; GI50 (MDA-MB-231 breast): 2.61 µM; TGI (MDA-MB-231 breast): 15.7 µM; GI50 (NCI/ADR-RES ovarian): 13.3 µM; TGI (NCI/ADR-RES ovarian): 41.3 µM; GI50 (MDA-MB-435): 1.11 µM; TGI (MDA-MB-435): 14.4 µM; GI50 (MCF7 breast): 0.996 µM; TGI (MCF7 breast): 11.2 µM; GI50 (DU-145 prostate): 5.91 µM; TGI (DU-145 prostate): 21.3 µM; GI50 (HS 578T breast): 1.06 µM; TGI (HS 578T breast): 8.86 µM
Cc1nc(-n2nc(-c3ccccc3)cc2-c2ccccc2)sc1C(=O)/C=C/c1cccc([N+](=O)[O-])c1	> 100	–	83.1	34.3	24.3	–	–
COC1CC(n2cc(F)c(N)nc2=O)OC1CO (configuration not stated)	> 100	> 100	> 100	> 100	> 100	> 100	–
CS(=O)(=O)CCNCc1ccoc1-c1ccc2ncnc(Nc3ccc(OCc4ccccc4)cc3)c2c1	–	–	–	–	–	–	GI50 (BT-549 breast): > 25 µM; TGI (BT-549 breast): > 25 µM; GI50 (MDA-MB-231 breast): > 25 µM; TGI (MDA-MB-231 breast): > 25 µM; GI50 (NCI/ADR-RES ovarian): > 25 µM; TGI (NCI/ADR-RES ovarian): > 25 µM; GI50 (MDA-MB-435): > 25 µM; TGI (MDA-MB-435): > 25 µM; GI50 (MCF7 breast): 8.54 µM; TGI (MCF7 breast): > 25 µM; GI50 (DU-145 prostate): > 25 µM; TGI (DU-145 prostate): > 25 µM; GI50 (HS 578T breast): 2.28 µM; TGI (HS 578T breast): > 25 µM
Cc1c2ccccc2c(C)n2c1nc1cc(Cl)c(Cl)cc12	–	–	–	–	–	–	GI50 (BT-549 breast): > 100 µM; TGI (BT-549 breast): > 100 µM; GI50 (MDA-MB-231 breast): 72.5 µM; TGI (MDA-MB-231 breast): > 100 µM; GI50 (NCI/ADR-RES ovarian): > 100 µM; GI50 (MDA-MB-435): > 100 µM; TGI (MDA-MB-435): > 100 µM; GI50 (MCF7 breast): 1.09 µM; TGI (MCF7 breast): > 100 µM; GI50 (DU-145 prostate): > 100 µM; TGI (DU-145 prostate): > 100 µM; GI50 (HS 578T breast): > 100 µM; TGI (HS 578T breast): > 100 µM
O=C1CC2OCC=C3CN4CCC5(C(=O)O)C(N1)C2C3CC45 (configuration not stated)	–	–	–	–	–	–	TGI (BT-549 breast): > 100 µM; TGI (MDA-MB-231 breast): > 100 µM; TGI (NCI/ADR-RES ovarian): > 100 µM; TGI (MDA-MB-435): > 100 µM; TGI (MCF7 breast): > 100 µM; TGI (DU-145 prostate): > 100 µM; TGI (HS 578T breast): > 100 µM
O=C(CCc1cc(-c2ccc(F)cc2)n[nH]1)N(Cc1ccccc1)Cc1ccccc1	> 100	> 100	> 100	> 100	–	–	–
